Test results taken from ChEMBL document CHEMBL5465560, “Selectivity Literature for EUbOPEN Chemogenomic Library” (2024).
Blank lines part the entries; values can stand above or below the compound they belong to.

How the values were obtained:
[1] = molecular target: T1, Serine/threonine-protein kinase ULK2 (Homo sapiens) (UniProt Q8IYT8); test: Selectivity interaction (KinomeScan (DiscoverX)) EUB0001079a ULK2; conditions: at 1 µM
T1 sequence (whole entry): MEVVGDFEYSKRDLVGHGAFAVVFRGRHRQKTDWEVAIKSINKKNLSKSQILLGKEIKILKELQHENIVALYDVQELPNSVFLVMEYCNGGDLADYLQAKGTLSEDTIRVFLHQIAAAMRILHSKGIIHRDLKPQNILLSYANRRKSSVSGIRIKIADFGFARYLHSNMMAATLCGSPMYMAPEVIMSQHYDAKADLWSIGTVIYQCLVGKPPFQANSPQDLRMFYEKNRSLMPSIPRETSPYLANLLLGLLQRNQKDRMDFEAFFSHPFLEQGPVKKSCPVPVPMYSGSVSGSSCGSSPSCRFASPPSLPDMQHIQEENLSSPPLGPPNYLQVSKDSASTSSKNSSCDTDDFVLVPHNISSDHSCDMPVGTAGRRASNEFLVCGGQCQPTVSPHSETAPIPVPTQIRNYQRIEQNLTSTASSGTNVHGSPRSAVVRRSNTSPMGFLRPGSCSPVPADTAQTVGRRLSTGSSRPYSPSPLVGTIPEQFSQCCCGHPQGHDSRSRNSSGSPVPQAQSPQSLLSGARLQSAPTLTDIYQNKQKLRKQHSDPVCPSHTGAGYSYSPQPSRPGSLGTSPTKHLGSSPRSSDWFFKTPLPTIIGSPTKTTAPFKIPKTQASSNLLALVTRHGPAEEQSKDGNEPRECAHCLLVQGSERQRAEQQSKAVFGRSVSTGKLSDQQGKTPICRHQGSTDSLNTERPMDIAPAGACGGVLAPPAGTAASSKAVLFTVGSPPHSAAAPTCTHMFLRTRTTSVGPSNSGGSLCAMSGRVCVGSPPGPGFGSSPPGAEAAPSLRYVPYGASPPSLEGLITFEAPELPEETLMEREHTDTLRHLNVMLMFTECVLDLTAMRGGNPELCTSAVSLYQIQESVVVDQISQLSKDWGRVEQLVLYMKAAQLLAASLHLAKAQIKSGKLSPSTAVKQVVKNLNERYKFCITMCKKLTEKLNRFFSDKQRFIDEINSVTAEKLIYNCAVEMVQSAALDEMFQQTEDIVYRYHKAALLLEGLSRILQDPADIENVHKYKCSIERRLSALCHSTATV

[2] = molecular target: Epidermal growth factor receptor (Homo sapiens, UniProt P00533); test: Selectivity interaction (Millipore kinase profiler) EUB0000124b EGFR; conditions: at 10 µM
Sequence of Epidermal growth factor receptor (P00533 whole entry): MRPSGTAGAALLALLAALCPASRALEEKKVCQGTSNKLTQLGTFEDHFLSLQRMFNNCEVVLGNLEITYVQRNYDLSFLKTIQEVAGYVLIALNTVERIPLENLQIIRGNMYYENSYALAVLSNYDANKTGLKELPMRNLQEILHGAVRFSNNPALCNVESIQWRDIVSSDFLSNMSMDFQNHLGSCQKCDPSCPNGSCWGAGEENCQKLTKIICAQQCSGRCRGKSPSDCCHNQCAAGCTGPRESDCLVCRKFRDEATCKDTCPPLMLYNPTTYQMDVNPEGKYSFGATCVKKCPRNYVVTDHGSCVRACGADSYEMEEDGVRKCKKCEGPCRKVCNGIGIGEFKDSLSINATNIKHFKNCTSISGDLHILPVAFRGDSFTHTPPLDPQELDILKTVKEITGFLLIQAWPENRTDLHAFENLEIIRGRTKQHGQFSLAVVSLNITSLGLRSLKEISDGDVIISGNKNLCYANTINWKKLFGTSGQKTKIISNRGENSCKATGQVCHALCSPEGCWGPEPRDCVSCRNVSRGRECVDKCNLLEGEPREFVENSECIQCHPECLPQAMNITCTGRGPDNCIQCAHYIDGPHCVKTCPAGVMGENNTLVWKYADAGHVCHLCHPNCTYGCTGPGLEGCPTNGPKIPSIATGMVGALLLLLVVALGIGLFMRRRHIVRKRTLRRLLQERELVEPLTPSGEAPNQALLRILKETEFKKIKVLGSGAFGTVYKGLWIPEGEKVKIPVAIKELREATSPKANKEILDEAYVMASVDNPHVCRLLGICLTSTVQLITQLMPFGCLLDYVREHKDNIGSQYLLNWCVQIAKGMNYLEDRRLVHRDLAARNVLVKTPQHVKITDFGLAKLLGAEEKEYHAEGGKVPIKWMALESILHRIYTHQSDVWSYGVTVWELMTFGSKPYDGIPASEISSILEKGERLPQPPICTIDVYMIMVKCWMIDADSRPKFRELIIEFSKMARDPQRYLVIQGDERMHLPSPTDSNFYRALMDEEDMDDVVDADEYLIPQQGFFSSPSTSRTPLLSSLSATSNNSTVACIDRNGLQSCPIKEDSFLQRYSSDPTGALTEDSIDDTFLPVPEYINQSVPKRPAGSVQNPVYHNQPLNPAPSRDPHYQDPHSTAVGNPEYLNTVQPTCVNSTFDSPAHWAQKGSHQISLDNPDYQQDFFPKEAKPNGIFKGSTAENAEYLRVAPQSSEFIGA

[3] = molecular target: Serine/threonine-protein kinase pim-2 (Homo sapiens, UniProt Q9P1W9); test: Selectivity interaction (KinomeScan (DiscoverX)) EUB0001619a PIM2; conditions: at 1 µM
Sequence of Serine/threonine-protein kinase pim-2 (Q9P1W9 whole entry, looked up): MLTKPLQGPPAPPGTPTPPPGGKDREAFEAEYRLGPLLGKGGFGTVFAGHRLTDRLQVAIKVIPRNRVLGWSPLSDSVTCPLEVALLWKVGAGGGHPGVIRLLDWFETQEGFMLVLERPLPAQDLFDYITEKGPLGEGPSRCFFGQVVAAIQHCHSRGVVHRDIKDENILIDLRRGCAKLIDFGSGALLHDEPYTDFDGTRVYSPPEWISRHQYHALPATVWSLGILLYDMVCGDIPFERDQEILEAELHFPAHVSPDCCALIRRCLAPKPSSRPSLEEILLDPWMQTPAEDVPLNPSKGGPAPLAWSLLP

[4] = molecular target: Fibroblast growth factor receptor 1 (Homo sapiens, UniProt P11362); test: Selectivity interaction (KinomeScan (DiscoverX)) EUB0000045b FGFR1
Sequence of Fibroblast growth factor receptor 1 (P11362 22-822 limits assumed): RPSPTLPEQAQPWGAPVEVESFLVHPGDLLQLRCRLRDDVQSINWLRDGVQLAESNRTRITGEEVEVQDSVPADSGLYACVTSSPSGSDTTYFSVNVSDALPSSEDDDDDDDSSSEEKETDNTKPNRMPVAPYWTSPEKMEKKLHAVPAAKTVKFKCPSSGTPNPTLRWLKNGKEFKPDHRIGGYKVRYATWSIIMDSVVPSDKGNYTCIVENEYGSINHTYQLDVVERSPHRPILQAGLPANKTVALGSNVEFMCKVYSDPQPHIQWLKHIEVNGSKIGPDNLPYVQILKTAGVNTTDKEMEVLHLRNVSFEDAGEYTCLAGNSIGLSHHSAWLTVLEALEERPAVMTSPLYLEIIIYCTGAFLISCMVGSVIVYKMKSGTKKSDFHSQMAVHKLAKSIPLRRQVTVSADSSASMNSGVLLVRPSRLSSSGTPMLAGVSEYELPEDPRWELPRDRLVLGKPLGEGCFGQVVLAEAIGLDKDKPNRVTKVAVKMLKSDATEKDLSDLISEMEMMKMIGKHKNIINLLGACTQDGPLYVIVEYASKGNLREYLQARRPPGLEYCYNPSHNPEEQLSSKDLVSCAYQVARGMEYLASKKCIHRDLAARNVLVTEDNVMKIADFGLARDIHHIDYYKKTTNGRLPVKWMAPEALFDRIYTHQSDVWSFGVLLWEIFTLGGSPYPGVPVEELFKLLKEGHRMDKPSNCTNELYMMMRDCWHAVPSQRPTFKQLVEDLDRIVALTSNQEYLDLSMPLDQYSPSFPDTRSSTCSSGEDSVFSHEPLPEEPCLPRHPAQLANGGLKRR

[5] = molecular target: CDK6/Cyclin D (Homo sapiens) (UniProt P24385+P30281+Q00534+P30279); test: Selectivity interaction (Upstate Kinase Profiler service (Millipore)) EUB0000056c CDK6; assay type: protein-complex assay; conditions: at 1 µM
Sequence of CDK6/Cyclin D (Homo sapiens) (P24385 whole entry, looked up): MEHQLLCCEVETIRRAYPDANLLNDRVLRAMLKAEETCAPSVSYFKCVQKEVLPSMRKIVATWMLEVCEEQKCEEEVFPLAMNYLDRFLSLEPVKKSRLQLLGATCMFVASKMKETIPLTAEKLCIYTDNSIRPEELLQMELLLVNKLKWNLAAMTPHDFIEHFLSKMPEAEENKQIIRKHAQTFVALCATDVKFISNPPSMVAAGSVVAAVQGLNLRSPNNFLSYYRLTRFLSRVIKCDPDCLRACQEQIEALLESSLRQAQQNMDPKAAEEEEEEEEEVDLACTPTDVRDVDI
Sequence of CDK6/Cyclin D (Homo sapiens) (P30279 whole entry, looked up): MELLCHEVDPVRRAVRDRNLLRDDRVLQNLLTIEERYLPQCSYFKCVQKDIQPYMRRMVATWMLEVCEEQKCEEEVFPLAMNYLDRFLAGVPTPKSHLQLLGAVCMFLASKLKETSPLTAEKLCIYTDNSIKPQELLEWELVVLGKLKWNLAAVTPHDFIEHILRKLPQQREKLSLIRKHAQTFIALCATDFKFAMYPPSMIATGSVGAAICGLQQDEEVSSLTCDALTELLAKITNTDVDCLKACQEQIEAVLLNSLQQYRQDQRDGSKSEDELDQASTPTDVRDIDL
Sequence of CDK6/Cyclin D (Homo sapiens) (P30281 whole entry, looked up): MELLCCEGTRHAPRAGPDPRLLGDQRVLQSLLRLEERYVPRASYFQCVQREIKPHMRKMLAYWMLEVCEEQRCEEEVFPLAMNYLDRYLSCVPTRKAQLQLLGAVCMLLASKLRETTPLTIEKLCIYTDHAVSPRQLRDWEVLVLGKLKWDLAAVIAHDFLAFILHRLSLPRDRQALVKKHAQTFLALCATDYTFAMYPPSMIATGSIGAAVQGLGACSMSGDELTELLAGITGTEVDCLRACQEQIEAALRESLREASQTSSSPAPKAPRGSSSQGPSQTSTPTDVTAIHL
Sequence of CDK6/Cyclin D (Homo sapiens) (Q00534 whole entry, looked up): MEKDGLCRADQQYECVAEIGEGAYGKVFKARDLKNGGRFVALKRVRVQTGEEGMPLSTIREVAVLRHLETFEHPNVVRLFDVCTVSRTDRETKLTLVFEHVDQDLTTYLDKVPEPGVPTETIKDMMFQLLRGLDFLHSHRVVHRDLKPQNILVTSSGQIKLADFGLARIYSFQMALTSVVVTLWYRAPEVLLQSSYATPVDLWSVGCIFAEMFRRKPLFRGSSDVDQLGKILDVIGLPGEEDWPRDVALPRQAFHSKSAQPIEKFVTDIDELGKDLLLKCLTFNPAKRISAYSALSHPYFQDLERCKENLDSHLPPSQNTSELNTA

[6] = molecular target: T2, Histone-arginine methyltransferase CARM1 (Homo sapiens) (UniProt Q86X55); conditions: KMS-28BM, at 3 µM
T2 sequence (whole entry): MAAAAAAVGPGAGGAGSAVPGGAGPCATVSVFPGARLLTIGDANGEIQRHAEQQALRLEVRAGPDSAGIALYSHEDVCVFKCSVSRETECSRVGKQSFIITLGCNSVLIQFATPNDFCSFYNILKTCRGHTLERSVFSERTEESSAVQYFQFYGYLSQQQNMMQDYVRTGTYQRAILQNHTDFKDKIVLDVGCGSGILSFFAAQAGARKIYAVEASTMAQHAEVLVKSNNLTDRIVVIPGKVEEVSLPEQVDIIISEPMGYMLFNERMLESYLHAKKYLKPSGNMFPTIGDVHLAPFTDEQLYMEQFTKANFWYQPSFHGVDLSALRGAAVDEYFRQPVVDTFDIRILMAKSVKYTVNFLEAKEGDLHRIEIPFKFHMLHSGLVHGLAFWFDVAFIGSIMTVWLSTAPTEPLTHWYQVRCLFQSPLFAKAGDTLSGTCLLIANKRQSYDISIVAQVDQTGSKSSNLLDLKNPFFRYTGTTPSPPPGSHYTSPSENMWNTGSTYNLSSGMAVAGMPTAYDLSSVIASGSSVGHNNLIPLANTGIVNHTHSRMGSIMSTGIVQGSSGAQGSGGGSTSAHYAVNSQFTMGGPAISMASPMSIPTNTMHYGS

[7] = molecular target: Serine/threonine-protein kinase PLK1 (Homo sapiens, UniProt P53350); test: Selectivity interaction (Kinase panel (KiNativ target engagement assay in Jurkat cells)) EUB0001635a PLK1; assay type: cell-based; conditions: Selectivity number of off-targets 0.0, Selectivity number of targets 233.0, Source Knowledge https://www.sciencedirect.com/science/article/pii/S2451945619300674?via%3Dihub, at 1 µM
Sequence of Serine/threonine-protein kinase PLK1 (P53350 whole entry): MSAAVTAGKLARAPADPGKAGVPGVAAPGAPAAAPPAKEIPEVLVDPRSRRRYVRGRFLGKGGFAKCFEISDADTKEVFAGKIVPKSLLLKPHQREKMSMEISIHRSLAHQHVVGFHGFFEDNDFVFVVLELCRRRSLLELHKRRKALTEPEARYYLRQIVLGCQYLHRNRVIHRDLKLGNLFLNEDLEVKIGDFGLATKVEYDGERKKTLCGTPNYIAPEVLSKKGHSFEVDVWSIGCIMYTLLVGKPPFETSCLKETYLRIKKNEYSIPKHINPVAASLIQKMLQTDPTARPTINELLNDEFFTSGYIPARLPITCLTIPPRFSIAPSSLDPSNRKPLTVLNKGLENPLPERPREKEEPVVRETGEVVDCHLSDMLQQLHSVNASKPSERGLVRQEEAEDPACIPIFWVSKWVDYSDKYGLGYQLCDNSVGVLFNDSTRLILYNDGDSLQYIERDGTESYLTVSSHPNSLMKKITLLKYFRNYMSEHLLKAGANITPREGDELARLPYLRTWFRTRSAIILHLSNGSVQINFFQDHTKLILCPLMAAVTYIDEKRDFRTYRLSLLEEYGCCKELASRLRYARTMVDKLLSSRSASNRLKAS

[8] = molecular target: Serine/threonine-protein kinase 38 (Homo sapiens) (UniProt Q15208); test: Selectivity interaction (ActivX KiNativ screen (kinase selectivity in THP-1 cell lysates)) EUB0000639a STK38; assay type: subcellular; conditions: lysate, at 0.2 µM
[9] = molecular target: Calcium/calmodulin-dependent protein kinase type 1G (Homo sapiens) (UniProt Q96NX5); test: Selectivity interaction (KinomeScan (DiscoverX)) EUB0000229b CAMK1G; conditions: at 10 µM
Sequence of Calcium/calmodulin-dependent protein kinase type 1G (Homo sapiens) (Q96NX5 whole entry): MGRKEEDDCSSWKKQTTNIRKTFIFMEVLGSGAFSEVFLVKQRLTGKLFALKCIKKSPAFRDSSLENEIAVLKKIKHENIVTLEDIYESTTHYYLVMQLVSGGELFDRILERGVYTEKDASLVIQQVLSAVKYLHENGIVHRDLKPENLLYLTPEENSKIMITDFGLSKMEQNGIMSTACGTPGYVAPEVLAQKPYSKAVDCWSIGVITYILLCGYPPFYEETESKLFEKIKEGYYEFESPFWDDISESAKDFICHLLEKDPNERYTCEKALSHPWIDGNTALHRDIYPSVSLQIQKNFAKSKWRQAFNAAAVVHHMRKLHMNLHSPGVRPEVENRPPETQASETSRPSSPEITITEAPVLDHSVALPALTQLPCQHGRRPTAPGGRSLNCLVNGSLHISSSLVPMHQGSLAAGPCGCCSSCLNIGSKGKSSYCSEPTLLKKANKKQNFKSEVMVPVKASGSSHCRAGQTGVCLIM

[10] = molecular target: T3, Serine/threonine-protein kinase Sgk1 (Homo sapiens) (UniProt O00141); test: Selectivity interaction (ProQinase) EUB0000171b SGK1
T3 sequence (whole entry): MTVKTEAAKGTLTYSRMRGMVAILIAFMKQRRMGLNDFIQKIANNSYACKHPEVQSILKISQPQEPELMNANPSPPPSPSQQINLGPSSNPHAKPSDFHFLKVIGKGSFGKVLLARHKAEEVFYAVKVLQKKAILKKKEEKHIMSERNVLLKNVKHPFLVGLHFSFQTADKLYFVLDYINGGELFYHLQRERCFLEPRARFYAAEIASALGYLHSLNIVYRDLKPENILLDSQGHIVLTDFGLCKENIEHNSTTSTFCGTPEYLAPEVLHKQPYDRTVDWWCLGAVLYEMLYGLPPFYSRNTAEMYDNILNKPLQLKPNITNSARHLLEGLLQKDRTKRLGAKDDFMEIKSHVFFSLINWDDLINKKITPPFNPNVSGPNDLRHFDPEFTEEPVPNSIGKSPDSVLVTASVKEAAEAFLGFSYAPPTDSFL

% of control [2]: 104%
Structure (SMILES): CC(=O)Nc1cccc(-n2c(=O)n(C3CC3)c(=O)c3c(Nc4ccc(I)cc4F)n(C)c(=O)c(C)c32)c1

% of growth rate [6]: -24.1%
Structure (SMILES): CNCCN1CCC(c2cc(CN(C)C(=O)c3cccc(Oc4ccccc4)c3)ccn2)CC1

% of control ([10]; at 1 µM): 49% | % of control ([10]; at 5 µM): 15%
Structure (SMILES): C=CC(=O)Nc1cccc(C(=O)Nc2ccc(Nc3cc(-c4[nH]c(SC)nc4C)ccn3)cc2)c1

More lines, now with the values behind:

Structure (SMILES): Nc1cnc(N2CCc3cc(S(=O)(=O)Nc4c(F)cc(Cl)cc4F)cc(N4CCCC4=O)c32)nc1 [TP-020n]
% of control [1]: 100%

Structure (SMILES): N#Cc1cccc(-c2c[nH]c3ncnc(N4CCOCC4)c23)c1
% of control [3]: 100%

Structure (SMILES): C=CC(=O)Nc1cc(-n2c(=O)ccc3cnc4ccc(-c5ccc(NS(C)(=O)=O)cc5)cc4c32)ccc1C
% of control ([4]; at 1 µM): 92% | % of control ([4]; at 10 µM): 98%

Structure (SMILES): Cc1ccc(-c2ccc3c(ccc4sc5c(c43)NC[C@@H](C)NC5=O)n2)cn1
% of inhibition [5]: 5%

Structure (SMILES): C=CC(=O)Nc1ccc(C(=O)Nc2[nH]nc3c2CN(C(=O)N[C@H](CN(C)C)c2ccccc2)C3(C)C)cc1
% of engagement [7]: 8.1%

Structure (SMILES): CC[C@@H]1[C@H](F)C(=O)N[C@@H]1COc1nccc2cc(C(N)=O)c(OC)cc12 [ZIMLOVISERTIB]
% of inhibition [8]: 22.6%

Structure (SMILES): COc1cc(N(C)c2ccnc3ccc(C(F)(F)F)cc23)cc(OC)c1OC
% binding [9]: 95%
